Values quoted from earlier work in patent US6638906B1, “Amphiphilic polymers and polypeptide conjugates comprising same” (Nobex Corporation, priority 1999, dated 2003).

B1: diazepan binding inhibitor: peptide secreted into the intestines found to stimulate CCK release (protein, UniProt P07108 2-87, looked up)
Acyl-CoA-binding protein: SQAEFEKAAEEVRHLKTKPSDEEMLFIYGHYKQATVGDINTERPGMLDFTGKAKWDAWNELKGTSKEDAMKAYINKVEELKKKYGI
B2: monitor peptide: peptide secreted into the intestines that controls CCK release by positive feedback regulation (protein, UniProt P09655 19-79, looked up)
Serine protease inhibitor …: GNPPAEVNGKTPNCPKQIMGCPRIYDPVCGTNGITYPSECSLCFENRKFGTSIHIQRRGTC

Key:
native CCK cells = settings: versus vehicle/basal secretion
food intake = settings: infused into the duodenum of rats with trypsin inhibitors
[1] = system: pancreatic protein output; settings: infused into the duodenum of rats
CCK release = settings: relative to LCRF

| Molecule | increase in CCK secretion (native CCK cells) | increase in CCK secretion (STC-1 cells) | effect on food intake (food intake) | dose-response of pancreatic protein output [1] | potency for stimulating CCK release, fold less than LCRF (CCK release) |
| --- | --- | --- | --- | --- | --- |
| luminal cholecystokinin releasing factor [Native LCRF] | ~300% | ~300% | causes a reduction of food intake | biphasic dose-response of curve of pancreatic protein output is observed, with higher doses of LCRF leading to decreased pancreatic protein output |  |
| B1 |  |  |  |  | 100-1,000 fold |
| B2 |  |  |  |  | 6 fold |
